Here are results for four compounds from ChEMBL document CHEMBL1134144, “Macrocyclization in the design of a conformationally constrained Grb2 SH2 domain inhibitor” (Bioorg Med Chem Lett, 2001).

SMILES strings stand for the structures.

This assay concerns the target Growth factor receptor-bound protein 2 (Homo sapiens, UniProt P62993). The experiment in a line: Inhibition of Growth factor receptor bound protein 2 SH2 domain binding in ELISA. In general terms: In an ELISA, binding on a coated surface is turned into a signal by an enzyme label.

Chain of Growth factor receptor-bound protein 2 (P62993 whole entry, the tested form may be a part): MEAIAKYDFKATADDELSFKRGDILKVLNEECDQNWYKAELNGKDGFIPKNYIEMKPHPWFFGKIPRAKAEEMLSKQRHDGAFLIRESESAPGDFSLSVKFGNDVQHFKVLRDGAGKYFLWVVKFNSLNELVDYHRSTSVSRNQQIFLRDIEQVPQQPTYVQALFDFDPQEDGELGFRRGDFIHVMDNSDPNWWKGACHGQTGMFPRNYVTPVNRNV

As to `CC(=O)N[C@@H](Cc1ccc(CP(=O)(O)O)cc1)C(=O)NC1(C(=O)N[C@@H](CC(N)=O)C(=O)NCCCc2cccc3ccccc23)CCCCC1`, the half-inhibitory concentration (IC50) worked out at 55 nM.
On to `NC(=O)C[C@@H]1NC(=O)C2(CCCCC2)NC(=O)C[C@@H](c2ccc(CP(=O)(O)O)cc2)/C=C/C[C@@H](Cc2cccc3ccccc23)CNC1=O`, for which the IC50 is 20 nM.
Regarding `NC(=O)C[C@H](NC(=O)C1(NC(=O)CCc2ccc(CP(=O)(O)O)cc2)CCCCC1)C(=O)NCCCc1cccc2ccccc12`, the IC50 worked out at 2000 nM.
As to `NC(=O)C[C@H](NC(=O)C1(NC(=O)[C@H](Cc2ccc(CP(=O)(O)O)cc2)NC(=O)C(=O)O)CCCCC1)C(=O)NCCCc1cccc2ccccc12`, the IC50 turned out to be 20 nM.

Broadly, the IC50 is the concentration at which inhibition is half-maximal. High values mean weaker potency, low ones greater potency.
